According to patent publication US20240358693A1, “METHODS OF TREATING PAIN” (Aisa Pharma, Inc., priority 2023, published 2024):

Test system: participants with SSc-RP
Assay: Average severity of weekly RP attacks (VAS 0-10 cm scale)
Assay type: in vivo, human
Excerpt: The absolute change in average severity of weekly RP attacks (VAS 0-10 cm scale) from baseline to the end of each Dosing Period was and will be a secondary outcome variable. The sponsor-developed participant-informed diary will be used to record data. Average severity of weekly RP attacks is defined as the total severity scores of RP attacks divided by total number of RP attacks within the last 7 days of each dosing period. Total severity scores of RP attacks during the last 7 days of screening period divided by the total number of RP attacks will be used as baseline for the analysis of all periods. The variable will be calculated similar to frequency data as before.

[1] = Pooled Cilnidipine 20 mg and Cilnidipine 20 mg + Tadalafil 5 mg, n=4, Excluding Outliers, ITT Population - Part A
[2] = Pooled Cilnidipine 20 mg and Cilnidipine 20 mg + Tadalafil 5 mg, n=4, ITT Population - Part A
[3] = Pooled Cilnidipine 20 mg and Cilnidipine 20 mg + Tadalafil 5 mg, Excluding Outliers, ITT Population - Part A
[4] = Pooled Cilnidipine 20 mg and Cilnidipine 20 mg + Tadalafil 5 mg, Excluding Outliers, by Baseline RCS, first subgroup, ITT Population - Part A
[5] = Pooled Cilnidipine 20 mg and Cilnidipine 20 mg + Tadalafil 5 mg, Excluding Outliers, by Baseline RCS, second subgroup, ITT Population - Part A
[6] = Pooled Cilnidipine 20 mg and Cilnidipine 20 mg + Tadalafil 5 mg, ITT Population - Part A
[7] = Pooled Cilnidipine 20 mg and Cilnidipine 20 mg + Tadalafil 5 mg, first Baseline RCS subgroup block (not named), ITT Part A
[8] = Pooled Cilnidipine 20 mg and Cilnidipine 20 mg + Tadalafil 5 mg, first Baseline RCS subgroup block (not named), ITT Part A, score 0-10
[9] = Pooled Cilnidipine 20 mg and Cilnidipine 20 mg + Tadalafil 5 mg, second Baseline RCS subgroup block (not named), ITT Part A
[10] = Pooled Cilnidipine 20 mg and Cilnidipine 20 mg + Tadalafil 5 mg, second Baseline RCS subgroup block (not named), ITT Part A, score 0-10
[11] = Pooled Cilnidipine, n=3, Excluding Outliers, ITT Population - Part A
[12] = Pooled Cilnidipine, n=3, ITT Population - Part A
[13] = Pooled Cilnidipine, n=3, by Baseline RCS, first subgroup, ITT Population - Part A
[14] = Pooled Cilnidipine, first Baseline RCS subgroup block (not named), ITT Part A
[15] = Pooled Cilnidipine, first Baseline RCS subgroup block (not named), ITT Part A, score 0-10

## COCCOC(=O)C1=C(C)NC(C)=C(C(=O)OC/C=C/c2ccccc2)C1c1cccc([N+](=O)[O-])c1 (stereo not shown) [Cilnidipine, cilnidipine]
[1]
  Average Severity (0-10) of Weekly Symptomatic RP Attacks, Mean: 3.40
  Average Severity (0-10) of Weekly Symptomatic RP Attacks, Median: 3.18
  Average Severity of Weekly Symptomatic RP Attacks, Change from Baseline, Mean: −1.24
  Average Severity of Weekly Symptomatic RP Attacks, Change from Baseline, Median: −1.06
  Average Severity of Weekly Symptomatic RP Attacks, Percent Change from Baseline, Mean: −24.75%
  Average Severity of Weekly Symptomatic RP Attacks, Percent Change from Baseline, Median: −19.08%
[2]
  Average Severity (0-10) of Weekly Symptomatic RP Attacks, Mean: 3.40
  Average Severity (0-10) of Weekly Symptomatic RP Attacks, Median: 3.18
  Average Severity of Weekly Symptomatic RP Attacks, Change from Baseline, Mean: −1.24
  Average Severity of Weekly Symptomatic RP Attacks, Change from Baseline, Median: −1.06
  Average Severity of Weekly Symptomatic RP Attacks, Percent Change from Baseline, Mean: −24.75%
  Average Severity of Weekly Symptomatic RP Attacks, Percent Change from Baseline, Median: −19.08%
[3]
  Average Severity of Weekly RP Attacks (All Attacks), Change from Baseline, Mean: −1.02
  Average Severity of Weekly RP Attacks (All Attacks), Change from Baseline, Median: −0.96
  Average Severity of Weekly RP Attacks (All Attacks), Mean: 3.35
  Average Severity of Weekly RP Attacks (All Attacks), Median: 3.06
  Average Severity of Weekly RP Attacks (All Attacks), Percent Change from Baseline, Mean: −21.83%
  Average Severity of Weekly RP Attacks (All Attacks), Percent Change from Baseline, Median: −16.40%
[4]
  Average Severity of Weekly Symptomatic RP Attacks (Mean): 2.85
  Average Severity of Weekly Symptomatic RP Attacks (Median): 2.40
  Average Severity of Weekly Symptomatic RP Attacks, Change from Baseline, Mean: −1.06
  Average Severity of Weekly Symptomatic RP Attacks, Change from Baseline, Median: −0.33
  Average Severity of Weekly Symptomatic RP Attacks, Percent Change from Baseline, Mean: −24.28%
  Average Severity of Weekly Symptomatic RP Attacks, Percent Change from Baseline, Median: −12.02%
[5]
  Average Severity of Weekly Symptomatic RP Attacks (Mean): 5.06
  Average Severity of Weekly Symptomatic RP Attacks (Median): 5.06
  Average Severity of Weekly Symptomatic RP Attacks, Change from Baseline, Mean: −1.79
  Average Severity of Weekly Symptomatic RP Attacks, Change from Baseline, Median: −1.79
  Average Severity of Weekly Symptomatic RP Attacks, Percent Change from Baseline, Mean: −26.14%
  Average Severity of Weekly Symptomatic RP Attacks, Percent Change from Baseline, Median: −26.14%
[6]
  Average Severity of Weekly RP Attacks (All Attacks), Change from Baseline, Mean: −1.02
  Average Severity of Weekly RP Attacks (All Attacks), Change from Baseline, Median: −0.96
  Average Severity of Weekly RP Attacks (All Attacks), Mean: 3.35
  Average Severity of Weekly RP Attacks (All Attacks), Median: 3.06
  Average Severity of Weekly RP Attacks (All Attacks), Percent Change from Baseline, Mean: −21.83%
  Average Severity of Weekly RP Attacks (All Attacks), Percent Change from Baseline, Median: −16.40%
[7]
  Average Severity of Weekly RP Attacks (All Attacks), Percent Change from Baseline, Mean: −21.36%
  Average Severity of Weekly RP Attacks (All Attacks), Percent Change from Baseline, Median: −9.57%
[8]
  Average Severity of Weekly RP Attacks (All Attacks), Change from Baseline, Mean: −0.84
  Average Severity of Weekly RP Attacks (All Attacks), Change from Baseline, Median: −0.39
  Average Severity of Weekly RP Attacks (All Attacks), Mean: 2.78
  Average Severity of Weekly RP Attacks (All Attacks), Median: 2.40
[9]
  Average Severity of Weekly RP Attacks (All Attacks), Percent Change from Baseline, Mean: −23.23%
  Average Severity of Weekly RP Attacks (All Attacks), Percent Change from Baseline, Median: −23.23%
[10]
  Average Severity of Weekly RP Attacks (All Attacks), Change from Baseline, Mean: −1.53
  Average Severity of Weekly RP Attacks (All Attacks), Change from Baseline, Median: −1.53
  Average Severity of Weekly RP Attacks (All Attacks), Mean: 5.06
  Average Severity of Weekly RP Attacks (All Attacks), Median: 5.06
Pooled Cilnidipine (n = 7)
  Severity: −16%
[11]
  Average Severity (0-10) of Weekly Symptomatic RP Attacks, Mean: 2.79
  Average Severity (0-10) of Weekly Symptomatic RP Attacks, Median: 2.40
  Average Severity of Weekly Symptomatic RP Attacks, Change from Baseline, Mean: −0.87
  Average Severity of Weekly Symptomatic RP Attacks, Change from Baseline, Median: −0.33
  Average Severity of Weekly Symptomatic RP Attacks, Percent Change from Baseline, Mean: −19.22%
  Average Severity of Weekly Symptomatic RP Attacks, Percent Change from Baseline, Median: −12.02%
[12]
  Average Severity (0-10) of Weekly Symptomatic RP Attacks, Mean: 2.79
  Average Severity (0-10) of Weekly Symptomatic RP Attacks, Median: 2.40
  Average Severity of Weekly Symptomatic RP Attacks, Change from Baseline, Mean: −0.87
  Average Severity of Weekly Symptomatic RP Attacks, Change from Baseline, Median: −0.33
  Average Severity of Weekly Symptomatic RP Attacks, Percent Change from Baseline, Mean: −19.22%
  Average Severity of Weekly Symptomatic RP Attacks, Percent Change from Baseline, Median: −12.02%
[13]
  Average Severity (0-10) of Weekly Symptomatic RP Attacks, Mean: 2.79
  Average Severity (0-10) of Weekly Symptomatic RP Attacks, Median: 2.40
  Average Severity of Weekly Symptomatic RP Attacks, Change from Baseline, Mean: −0.87
  Average Severity of Weekly Symptomatic RP Attacks, Change from Baseline, Median: −0.33
  Average Severity of Weekly Symptomatic RP Attacks, Percent Change from Baseline, Mean: −19.22%
  Average Severity of Weekly Symptomatic RP Attacks, Percent Change from Baseline, Median: −12.02%
[14]
  Average Severity of Weekly RP Attacks (All Attacks), Percent Change from Baseline, Mean: −17.99%
  Average Severity of Weekly RP Attacks (All Attacks), Percent Change from Baseline, Median: −7.69%
[15]
  Average Severity of Weekly RP Attacks (All Attacks), Change from Baseline, Mean: −0.71
  Average Severity of Weekly RP Attacks (All Attacks), Change from Baseline, Median: −0.20
  Average Severity of Weekly RP Attacks (All Attacks), Mean: 2.55
  Average Severity of Weekly RP Attacks (All Attacks), Median: 2.40
